# Measured values taken from patent US20030186943A1, “Substituted gamma-phenyl-delta-lactams and uses related thereto” (Inflazyme Pharmaceuticals Ltd., priority 1998, published 2003).
# Where two headings read alike, the source gives them in different places.
# Key:
# [1] = tested on: TNF-α production in concanavalin-A stimulated primary human CD4+ T-lymphocytes; assay: TNF-α production in Con-A stimulated human CD4+ T-cells (ELISA); type: cell-based; details: T-lymphocyte, X marks this range
# Method: Activated T-lymphocytes are known to produce TNF-α and may constitute a significant source of this important inflammatory mediator in localized regions of inflammation such as the rheumatoid synovium or psoriatic lesions. Supernatants from cona-stimulated primary human CD4+ T-cells that had been incubated in the presence or absence of a test compound were analyzed for TNF-α using an ELISA system. (Pharingen; recommended anti-TNF antibody set 18631-D and 18642-D). Substantial quantities of TNF-α were induced in vehicle treated T-cells stimulated with conA. […] This may be due to the differing sensitivity of monocyte/macrophages versus T-lymphocytes to elevations in intracellular cAMP with respect to regulatory pathways impacting TNF-α production.
# (§1) Approximately 60 cc of whole human blood was collected into ACD anti-coagulant vacutainer tubes. 15 mL Ficoll Paque 1077 was aliquoted into 6 sterile 50 mL conical tubes. 10 mL of blood was slowly layered on top of the Ficoll Paque by holding the tube upright and resting the pipette tip at the inside edge of the tube and allowing the blood to slowly run down the side of the tube. Tubes were spun at 1700 rpm for 30 minutes at room temperature. The plasma layer above the leukocyte band was aspirated off and a pasteur pipette was used to lift off the leukocyte band and transfer it to a sterile 50 mL conical tube. Cells from each leukocyte gradiant tube were transferred to a separate 50 mL conical tube. Sterile PBS pH 7.4 was added to each 50 mL conical tube containing cells from leukocyte band to a volume of 50 mL. Tubes were spun at 1100 rpm for 10 minutes. Supernatant was aspirated off and the cells were resuspended in 50 mL PBS pH 7.4. Tubes were re-centrifuged at 1100 rpm for 10 minutes. Supernatant was aspirated off and the cells were resuspended in appropriate medium at a density of 5×10^7 cells/mL or 2×10^6 cells/mL.
# (§2) CD 4+T-cell Preparation: Cells from Leukocyte preparation were resuspended in sterile PBS pH 7.4 supplemented with 2-6% Fetal Bovine Serum (FBS) at a density of 5×10^7 cells/mL. Cells were then ready for isolation.
# (§3) 100 μL of antibody cocktail (Stem Cell Technologies, Catalogue No. 14062) was added for each mL of cells and mixed well. Cells+Ab cocktail was incubated on ice for 30 minutes. After 30 minute incubation, 60 μL of magnetic colloid was added for each mL of cells, and mixed well. Cells+Ab cocktail+magnetic colloid were incubated on ice for 30 minutes. After a final 30 minute incubation cells were ready for magnetic cell separation.
# (§4) Sample was loaded into the top of a column. The stopcock was turned to allow the flow of media down through the column, and the media was collected into a collection tube. PBS supplemented with 2-6% FBS was added to the column until three column volumes had been collected (not including the volume of the start sample). Cells were washed, counted, and resuspended in RPMI 1640 with 10% FBS+2 mM L-glutamine at a density of 1×10^6 cells/mL.
# (§5) CD4+ T-cells were isolated as described above. Cells were suspended in RPMI 1640 media (Stem Cell Technologies Inc.; Catalogue No. 36750) with 10% FBS+2 mM L-glutamine at a density of 1×10^6 cells/mL. Cells were maintained on ice as test compounds were prepared. Test compounds were prepared in a sterile 96-well assay plate at 50×the final desired test concentration, all wells contained an equal amount of dimethylsulfoxide vehicle. 500 μL of CD4^+ T-cells were added to each well of 24-well assay plate. 10 μL of each test compound working solution was added to the appropriate wells; two wells were left as stimulated and non-stimulated controls. 10 μL of concanavalin A (50×the final concentration) at 10 μg/mL was added to each well with the exception of the non-stimulated control wells. Cells were incubated at 37° C. for 48 hours. Conditioned media is then assessed by ELISA for the quantity of IL-2, […], TNFα and IL-10 present.
# [2] = tested on: IL-2 production in concanavalin A stimulated primary human CD4+ T-cells; assay: IL-2 production (Th1 profile) in concanavalin A stimulated primary human CD4+ T-cells; type: cell-based; details: for IC50: Homo sapiens, T-cell, 10 μg/mL Concanavalin A, 48 hours, X marks this range; for Th1 versus Th2 cytokine profile: conA stimulated CD4+ selected cells
# Description: (§6) The assay on the primary human T-cells involves their activation by concanavalin A (conA); (Sigma, Catalogue No. C 5275), followed by ELISA detection for cytokines for either profile. In the case of Th1-profiles, IL-2 and INF-γ are used as benchmarks while IL-10 is the indicator for a Th2-profile. Biologically, these indicators are useful in that IL-2 is the major T-cell mitogen while IL-10 represents a powerful yet selective immunosuppressive agent.
# as §1, §2, §3, §4, §5
# (§7) Tables 5A, 5B and 5C represent a synopsis of data across individuals with respects to the potency of compounds of the invention in their ability to inhibit cytokines that are likely to promote or depress a Th1 or Th2 response. […]
# [3] = tested on: IFN-gamma production in concanavalin A stimulated primary human CD4+ T-cells; assay: IFN-gamma production (Th1 profile) in concanavalin A stimulated primary human CD4+ T-cells; type: cell-based; details: T-cell, 10 μg/mL Concanavalin A, 48 hours, X marks this range, read-out: INF-GAMMA IC50 RANGE (μM) 0.2-2.0
# Description: as §6, §1, §2, §3, §4, §5, §7
# [4] = tested on: IL-10 production in concanavalin A stimulated primary human CD4+ T-cells; assay: IL-10 production (Th2 profile) in concanavalin A stimulated primary human CD4+ T-cells; type: cell-based; details: T-cell, 10 μg/mL Concanavalin A, 48 hours, X marks this range
# Description: as §6, §1, §2, §3, §4, §5, §7
# [5] = tested on: High Affinity Rolipram Binding Site of PDE4 in Mouse Brain; assay: Displacement of [3H]-rolipram from its high affinity binding site (HARBS); details: for PDE4:HARBS: ratio of IC50 for PDE4 catalytic activity to concentration displacing 50% of rolipram from HARBS
# [6] = read-out: TNF-alpha IC50 RANGE (μM) 2.0-20
# [7] = read-out: IL-2 IC50 RANGE (μM) 0.02-0.2
# [8] = read-out: IL-10 IC50 RANGE (μM) 2.0-20
# [9] = read-out: IL-2 IC50 RANGE (μM) 0.2-2.0
# [10] = read-out: TNF-alpha IC50 RANGE (μM) <2
# [11] = read-out: IL-10 IC50 RANGE (μM) 0.2-2.0
# [12] = read-out: IL-10 IC50 RANGE (μM) 0.02-0.2
SMILES,"IC50 [1, 6] [µM]","IC50 [2, 7] [µM]",Th1 versus Th2 cytokine profile [2],IC50 [3] [µM],"IC50 [4, 8] [µM]",PDE4:HARBS [5],"IC50 [2, 9] [µM]",ratio of IC50's for PDE4catalytic to PDE4HARBS [5],"IC50 [1, 10] [µM]","IC50 [4, 11] [µM]","IC50 [4, 12] [µM]",IC50 ([2]; read-out: IL-2 IC50 RANGE (μM) 2.0-20) [µM]
COc1cc(C[C@@H]2C[C@@H](c3ccc(OC)c(OC)c3)COC2=O)ccc1O [Compound 30],2 to 20,0.02 to 0.2,selective inhibition of a Th1 profile,0.2 to 2,2 to 20,<1,,,,,,
COc1ccc([C@@H]2CCC(=O)OC2)cc1OC1CCCC1 [Compound 41],,,,,,>1,,,,,,
COc1cc(CC2C[C@@H](c3ccc(OC)c(OC4CCCC4)c3)COC2=O)ccc1O (stereo partly drawn) [Compound 43],2 to 20,,,0.2 to 2,2 to 20,>1,0.2 to 2,1.04,,,,
COc1ccc([C@H]2CNC(=O)C(Cc3ccc(OCc4ccccc4)c(OC)c3)C2)cc1OC (stereo partly drawn) [Compound 54],,0.02 to 0.2,selective inhibition of a Th1 profile,0.2 to 2,,>1,,,< 2,0.2 to 2,,
COc1cc(CC2C[C@@H](c3ccc(OC)c(OC)c3)CNC2=O)ccc1O (stereo partly drawn) [Compound 55],2 to 20,,,0.2 to 2,,>1,0.2 to 2,,,0.2 to 2,,
COc1cc(CC2C[C@@H](c3ccc(OC)c(OC4CCCC4)c3)CNC2=O)ccc1O (stereo partly drawn) [Compound 62],,,,0.2 to 2,,>1,0.2 to 2,,< 2,,0.02 to 0.2,
"COc1ccc(C2CNC(=O)C2)cc1OC1CCCC1 (stereo not drawn) [Rolipram, reference compound]",,,,0.2 to 2,,,,,< 2,,0.02 to 0.2,2 to 20
